From paper PMC3163380, “Design, Synthesis and Biological Evaluation of Novel Pyrimido[4,5-d]pyrimidine CDK2 Inhibitors as Anti-Tumor Agents” (Scientia Pharmaceutica, 2011)

What was measured:
[1] = system: IGROV1; assay: NCI primary anti-cancer assay (SRB), IGROV1; format: cell-based; details: Homo sapiens, IGROV-1; 10^−5M; Ovarian Cancer IGROV1; read-out: Growth Inhibition %
Procedure: (§1) Evaluation of anti-cancer activities on pyrimido[4,5-d]pyrimidine derivatives were performed at the National Cancer Institute (NCI) USA. First the newly synthesized compounds have been evaluated in primary anti-cancer assay at 10^−5M concentration against 60 human tumor cell lines then the active compounds were tested at 5 different concentrations against the same 60 human tumor cell lines. The biological data for the newly synthesized compounds are compiled in table 2
(§2) The cytotoxic activity was measured in vitro for the newly synthesized compounds using the SulfoRhodamine-B stain (SRB) assay using the method of Skehan. Cells were plated in 96-multiwell microtiter plate (10^4 cells/well) for 24 h before treatment with the compound(s) to allow attachment of cell to the wall of the plate. Tested compounds were dissolved in DMSO and diluted with saline to the appropriate volume. Triplicate wells were prepared for each individual dose. Monolayer cells were incubated with the compound(s) for 48 h at 37 °C and in atmosphere of 5% CO2. After 48 h, cells were fixed, washed, and stained for 30 min with 0.4% (wt/vol) with SRB dissolved in 1% acetic acid. Unbound dye was removed by four washes with 1% acetic acid, and attached stain was recovered with Tris-EDTA buffer. Color intensity was measured in an ELISA reader. The relation between surviving fraction and drug concentration is plotted to get the survival curve for tumor cell line after the specified time.

[2] = target: CDK4/CyclinD (Homo sapiens, UniProt P11802); assay: CDK4/CyclinD inhibition assay; format: biochemical; details: mean of at least two independent experiments
CDK4/CyclinD, sequence (P11802 whole entry, species assumed, the tested form may be a part): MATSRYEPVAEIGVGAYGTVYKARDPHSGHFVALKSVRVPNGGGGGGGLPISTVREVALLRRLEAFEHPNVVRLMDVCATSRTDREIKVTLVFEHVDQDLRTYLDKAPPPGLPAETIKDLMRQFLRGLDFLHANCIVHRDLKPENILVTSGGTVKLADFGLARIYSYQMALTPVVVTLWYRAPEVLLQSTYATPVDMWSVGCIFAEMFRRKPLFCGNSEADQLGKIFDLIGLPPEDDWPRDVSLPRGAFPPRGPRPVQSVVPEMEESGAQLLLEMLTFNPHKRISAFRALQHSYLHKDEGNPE
CDK4/CyclinD, sequence (P24385 whole entry partner, species assumed, the tested form may be a part): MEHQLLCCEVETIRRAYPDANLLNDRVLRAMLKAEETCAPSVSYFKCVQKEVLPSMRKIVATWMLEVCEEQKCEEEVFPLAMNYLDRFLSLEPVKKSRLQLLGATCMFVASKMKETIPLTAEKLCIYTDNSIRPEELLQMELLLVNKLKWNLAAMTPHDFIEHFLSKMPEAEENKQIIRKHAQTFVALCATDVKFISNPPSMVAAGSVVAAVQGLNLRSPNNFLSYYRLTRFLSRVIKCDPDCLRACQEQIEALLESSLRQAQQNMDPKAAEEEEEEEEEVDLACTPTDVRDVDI

[3] = target: T1, human EGFR tyrosine kinase domain (Homo sapiens, UniProt P00533); assay: EGFR tyrosine kinase inhibition assay; format: biochemical; details: mean of at least two independent experiments
T1 construct: C-terminal human EGFR tyrosine kinase domain
T1 sequence (P00533 712-979 limits assumed): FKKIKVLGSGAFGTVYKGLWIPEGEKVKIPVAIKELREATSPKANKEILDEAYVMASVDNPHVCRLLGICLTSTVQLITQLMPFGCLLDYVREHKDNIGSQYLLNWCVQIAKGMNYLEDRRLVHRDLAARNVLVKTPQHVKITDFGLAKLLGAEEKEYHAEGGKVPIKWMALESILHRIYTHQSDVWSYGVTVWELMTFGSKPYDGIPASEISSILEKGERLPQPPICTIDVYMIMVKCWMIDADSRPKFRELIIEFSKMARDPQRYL

[4] = system: EKVX; assay: NCI primary anti-cancer assay (SRB), EKVX; format: cell-based; details: Homo sapiens; 10^−5M; Non-Small Cell Lung Cancer EKVX; read-out: Growth Inhibition %
Procedure: as §1
as §2, with “The relation between surviving fraction and drug concentration is plotted to get the survival curve for tumor cell line after the specified time.” left out

[5] = system: A549/ATCC; assay: NCI primary anti-cancer assay (SRB), A549/ATCC; format: cell-based; details: Homo sapiens; 10^−5M; Non-Small Cell Lung Cancer A549/ATCC; read-out: Growth Inhibition %
Procedure: as §1, §2

[6] = system: UACC-257; assay: NCI primary anti-cancer assay (SRB), UACC-257; format: cell-based; details: Homo sapiens; 10^−5M; Melanoma UACC-257; read-out: Growth Inhibition %
Procedure: as §1, §2

[7] = target: T2, CDK2/CyclinA (Homo sapiens, UniProt P24941); assay: CDK2/cyclinA enzymatic activity inhibition assay (32P-ATP, histone H1); format: biochemical; details: mean of at least two independent experiments
T2 construct: hexa-histidine (N); made in house; host or cells: sf21 insect cells (baculovirus)

[8] = system: RPMI-8226; assay: NCI primary anti-cancer assay (SRB), RPMI-8226; format: cell-based; details: Homo sapiens; 10^−5M; Leukemia RPMI-8226; read-out: Growth Inhibition %
Procedure: as §1, §2

[9] = system: UO-31; assay: NCI primary anti-cancer assay (SRB), UO-31; format: cell-based; details: Homo sapiens; 10^−5M; Renal Cancer UO-31; read-out: Growth Inhibition %
Procedure: as §1, §2

[10] = system: MOLT-4; assay: NCI primary anti-cancer assay (SRB), MOLT-4; format: cell-based; details: Homo sapiens; 10^−5M; Leukemia MOLT-4; read-out: Growth Inhibition %
Procedure: as §1, §2

[11] = system: 60 human tumor cell lines; assay: NCI primary anti-cancer assay, summary over tumor cell lines; format: cell-based; details: 10^−5M, Non-small cell lung cancer, Ovarian cancer, Leukemia and Melanoma lines / different tumor cell lines, read-out: growth inhibitions (range over cell lines)
Procedure: as §1, §2

[12] = system: OVCAR-8; assay: NCI primary anti-cancer assay (SRB), OVCAR-8; format: cell-based; details: Homo sapiens; 10^−5M; Ovarian Cancer OVCAR-8; read-out: Growth Inhibition %
Procedure: as §1, §2

[13] = system: HL-60(TB); assay: NCI primary anti-cancer assay (SRB), HL-60(TB); format: cell-based; details: Homo sapiens; 10^−5M; Leukemia HL-60(TB); read-out: Growth Inhibition %
Procedure: as §1, §2

[14] = system: HOP-92; assay: NCI primary anti-cancer assay (SRB), HOP-92; format: cell-based; details: Homo sapiens; 10^−5M; Non-Small Cell Lung Cancer HOP-92; read-out: Growth Inhibition %
Procedure: as §1, §2

[15] = system: BT-549; assay: NCI primary anti-cancer assay (SRB), BT-549; format: cell-based; details: Homo sapiens; 10^−5M; Breast Cancer BT-549; read-out: Growth Inhibition %
Procedure: as §1
as §2, with “The relation between surviving fraction and drug concentration is plotted to get the survival curve for tumor cell line after the specified time.” left out

[16] = system: MDA-MB-231/ATCC; assay: NCI primary anti-cancer assay (SRB), MDA-MB-231/ATCC; format: cell-based; details: Homo sapiens; 10^−5M; Breast Cancer MDA-MB-231/ATCC; read-out: Growth Inhibition %
Procedure: as §1, §2

[17] = system: K-562; assay: NCI primary anti-cancer assay (SRB), K-562; format: cell-based; details: Homo sapiens, K562; 10^−5M; Leukemia K-562; read-out: Growth Inhibition %
Procedure: as §1, §2

[18] = system: HS 578T; assay: NCI primary anti-cancer assay (SRB), HS 578T; format: cell-based; details: Homo sapiens; 10^−5M; Breast Cancer HS 578T; read-out: Growth Inhibition %
Procedure: as §1, §2

[19] = system: MCF7; assay: NCI primary anti-cancer assay (SRB), MCF7; format: cell-based; details: Homo sapiens; 10^−5M; Breast Cancer MCF7; read-out: Growth Inhibition %
Procedure: as §1
as §2, with “The relation between surviving fraction and drug concentration is plotted to get the survival curve for tumor cell line after the specified time.” left out

[20] = system: SF-539; assay: NCI primary anti-cancer assay (SRB), SF-539; format: cell-based; details: Homo sapiens; 10^−5M; CNS Cancer SF-539; read-out: Growth Inhibition %
Procedure: as §1, §2

| Structure (SMILES) | inhibition at 10 µM [1] [%] | IC50 [2] [µM] | IC50 [3] [µM] | inhibition at 10 µM [4] [%] | melting point [°C] | IC50 [7] [µM] | inhibition at 10 µM [8] [%] | inhibition at 10 µM [9] [%] | inhibition at 10 µM [10] [%] | inhibition at 10 µM [11] [%] | inhibition at 10 µM [13] [%] | inhibition at 10 µM [14] [%] | other results |
| --- | --- | --- | --- | --- | --- | --- | --- | --- | --- | --- | --- | --- | --- |
| O=c1[nH]c(NCc2ccccc2)nc2nc(Nc3ccc(NC(=S)Nc4ccccc4)cc3)nc(-c3ccc(O)cc3O)c12 [Compound 7a, 1-(4-{[7-(Benzylamino)-4-(2,4-dihydroxyphenyl)-5-oxo-5,6-dihydropyrimido[4,5-d]pyrimidin-2-yl]amino}phenyl)-3-phenylthiourea] | 29.7 | 3.33 | > 10 | 36.8 | > 300 | 0.31 | 22.6 | 21.4 | 36.7 | 50 to 70 | – | – | inhibition at 10 µM [5]: 58.4%; inhibition at 10 µM [6]: 60.3% |
| Cc1nc(Nc2ccc(NC(=S)Nc3ccccc3)cc2)nc2nc(Nc3ccc(S(=O)(=O)O)cc3)[nH]c(=O)c12 [Compound 7h, 4-{[5-Methyl-4-oxo-7-({4-[(phenylcarbamothioyl)amino]phenyl}amino)-3,4-dihydropyrimido[4,5-d]pyrimidin-2-yl]amino}benzenesulfonic acid] | 28 | > 10 | > 10 | – | > 300 | 6 | 52.5 | 21.1 | 20.8 | 50 to 70 | 29 | 24.3 | IC50 CDK4/CyclinD [2]: no activity; inhibition at 10 µM [12]: 50.2%; inhibition at 10 µM [15]: 39% |
| Cc1nc(Nc2ccc(NC(=S)Nc3ccccc3)cc2)nc2nc(NCc3ccccc3)[nH]c(=O)c12 [Compound 7b, 1-(4-{[7-(Benzylamino)-4-methyl-5-oxo-5,6-dihydropyrimido[4,5-d]pyrimidin-2-yl]amino}-phenyl)-3-phenylthiourea] | – | 4.85 | > 10 | 28.5 | > 300 | 0.86 | 50.2 | – | 32.9 | 50 to 70 | 24.5 | 20.8 | inhibition at 10 µM [16]: 31.5%; inhibition at 10 µM [17]: 53.7%; inhibition at 10 µM [18]: 33.6%; inhibition at 10 µM [19]: 43.5%; inhibition at 10 µM [20]: 42% |
